pIC50: −log10 of the molar value.
Legend:
[1] = target: RAF proto-oncogene serine/threonine-protein kinase (Homo sapiens, UniProt P04049); assay: Inhibition of human CRAF using MEK1 as substrate by [gamma-33P]-ATP assay
[2] = target: Serine/threonine-protein kinase B-raf (Homo sapiens, UniProt P15056, V600E); assay: Inhibition of human BRAF V600E mutant using MEK1 as substrate by […] assay
[3] = target: Serine/threonine-protein kinase B-raf (Homo sapiens, UniProt P15056); assay: Inhibition of human BRAF using MEK1 as substrate by […] assay
Sequence of Serine/threonine-protein kinase B-raf (Homo sapiens, UniProt P15056) (P15056 whole entry): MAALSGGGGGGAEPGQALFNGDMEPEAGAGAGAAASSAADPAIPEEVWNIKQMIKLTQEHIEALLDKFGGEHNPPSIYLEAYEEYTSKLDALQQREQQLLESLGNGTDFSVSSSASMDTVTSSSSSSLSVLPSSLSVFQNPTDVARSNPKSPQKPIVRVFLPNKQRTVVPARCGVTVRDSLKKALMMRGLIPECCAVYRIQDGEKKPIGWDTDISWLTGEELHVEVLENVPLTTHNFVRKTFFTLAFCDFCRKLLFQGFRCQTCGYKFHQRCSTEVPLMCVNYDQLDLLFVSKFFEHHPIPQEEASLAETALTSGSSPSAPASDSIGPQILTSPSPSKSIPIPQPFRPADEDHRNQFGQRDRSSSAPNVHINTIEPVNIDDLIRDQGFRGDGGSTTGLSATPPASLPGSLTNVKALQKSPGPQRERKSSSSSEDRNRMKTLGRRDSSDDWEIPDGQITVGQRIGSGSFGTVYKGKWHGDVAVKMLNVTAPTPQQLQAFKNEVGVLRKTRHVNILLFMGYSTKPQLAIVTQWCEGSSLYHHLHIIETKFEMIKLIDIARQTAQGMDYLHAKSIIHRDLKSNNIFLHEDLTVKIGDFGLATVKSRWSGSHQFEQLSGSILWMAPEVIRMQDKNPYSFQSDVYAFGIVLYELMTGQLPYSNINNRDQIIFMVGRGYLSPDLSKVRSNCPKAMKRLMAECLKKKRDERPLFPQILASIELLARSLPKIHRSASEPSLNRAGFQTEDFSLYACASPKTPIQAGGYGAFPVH

L132 = assay: Cytotoxicity against human L132 cells assessed as reduction in cell viability by MTT assay; assay type: cell-based
SK-MEL-28 [4] = assay: Cytotoxicity against human SK-MEL-28 cells assessed as reduction in cell viability by MTT assay; assay type: functional, cell-based
A-375 = assay: Cytotoxicity against human A-375 cells assessed as reduction in cell viability by MTT assay; assay type: functional, cell-based
MDA-MB-468 = assay: Cytotoxicity against human MDA-MB-468 cells assessed as cell viability at 10 uM incubated for 48 hrs by sulforhodamine B assay relative to control; assay type: functional; conditions: read-out: Activity
T47D = assay: Cytotoxicity against human T47D cells assessed as cell viability at 10 uM incubated for 48 hrs by sulforhodamine B assay relative to control; assay type: functional; conditions: read-out: Activity
SN12C = assay: Cytotoxicity against human SN12C cells assessed as cell viability at 10 uM incubated for 48 hrs by sulforhodamine B assay relative to control; assay type: functional; conditions: read-out: Activity
ACHN = assay: Cytotoxicity against human ACHN cells assessed as cell viability at 10 uM incubated for 48 hrs by sulforhodamine B assay relative to control; assay type: functional; conditions: read-out: Activity
786-0 = assay: Cytotoxicity against human 786-0 cells assessed as cell viability at 10 uM incubated for 48 hrs by sulforhodamine B assay relative to control; assay type: functional; conditions: read-out: Activity
SK-OV-3 = assay: Cytotoxicity against human SK-OV-3 cells assessed as cell viability at 10 uM incubated for 48 hrs by sulforhodamine B assay relative to control; assay type: functional; conditions: read-out: Activity
OVCAR-4 = assay: Cytotoxicity against human OVCAR-4 cells assessed as cell viability at 10 uM incubated for 48 hrs by sulforhodamine B assay relative to control; assay type: functional; conditions: read-out: Activity
OVCAR-3 = assay: Cytotoxicity against human OVCAR-3 cells assessed as cell viability at 10 uM incubated for 48 hrs by sulforhodamine B assay relative to control; assay type: functional; conditions: read-out: Activity
UACC-62 = assay: Cytotoxicity against human UACC-62 cells assessed as cell viability at 10 uM incubated for 48 hrs by sulforhodamine B assay relative to control; assay type: functional; conditions: read-out: Activity
SK-MEL-28 [5] = assay: Cytotoxicity against human SK-MEL-28 cells assessed as cell viability at 10 uM incubated for 48 hrs by sulforhodamine B assay relative to control; assay type: functional; conditions: read-out: Activity
CCRF-CEM = assay: Cytotoxicity against human CCRF-CEM cells assessed as cell viability at 10 uM incubated for 48 hrs by sulforhodamine B assay relative to control; assay type: functional; conditions: read-out: Activity
HL-60(TB) = assay: Cytotoxicity against human HL-60(TB) cells assessed as cell viability at 10 uM incubated for 48 hrs by sulforhodamine B assay relative to control; assay type: functional; conditions: read-out: Activity
K562 = assay: Cytotoxicity against human K562 cells assessed as cell viability at 10 uM incubated for 48 hrs by sulforhodamine B assay relative to control; assay type: functional; conditions: read-out: Activity
MOLT-4 = assay: Cytotoxicity against human MOLT-4 cells assessed as cell viability at 10 uM incubated for 48 hrs by sulforhodamine B assay relative to control; assay type: functional; conditions: read-out: Activity
NCI-H460 = assay: Cytotoxicity against human NCI-H460 cells assessed as cell viability at 10 uM incubated for 48 hrs by sulforhodamine B assay relative to control; assay type: functional; conditions: read-out: Activity
COLO 205 = assay: Cytotoxicity against human COLO 205 cells assessed as cell viability at 10 uM incubated for 48 hrs by sulforhodamine B assay relative to control; assay type: functional; conditions: read-out: Activity
HCT-29 = assay: Cytotoxicity against human […] cells assessed as cell viability at 10 uM incubated for 48 hrs by sulforhodamine B assay relative to control; assay type: functional; conditions: read-out: Activity
KM12 = assay: Cytotoxicity against human KM12 cells assessed as cell viability at 10 uM incubated for 48 hrs by sulforhodamine B assay relative to control; assay type: functional; conditions: read-out: Activity

Sequence of Serine/threonine-protein kinase B-raf (Homo sapiens, UniProt P15056, V600E) (P15056 2-766 V600E limits assumed): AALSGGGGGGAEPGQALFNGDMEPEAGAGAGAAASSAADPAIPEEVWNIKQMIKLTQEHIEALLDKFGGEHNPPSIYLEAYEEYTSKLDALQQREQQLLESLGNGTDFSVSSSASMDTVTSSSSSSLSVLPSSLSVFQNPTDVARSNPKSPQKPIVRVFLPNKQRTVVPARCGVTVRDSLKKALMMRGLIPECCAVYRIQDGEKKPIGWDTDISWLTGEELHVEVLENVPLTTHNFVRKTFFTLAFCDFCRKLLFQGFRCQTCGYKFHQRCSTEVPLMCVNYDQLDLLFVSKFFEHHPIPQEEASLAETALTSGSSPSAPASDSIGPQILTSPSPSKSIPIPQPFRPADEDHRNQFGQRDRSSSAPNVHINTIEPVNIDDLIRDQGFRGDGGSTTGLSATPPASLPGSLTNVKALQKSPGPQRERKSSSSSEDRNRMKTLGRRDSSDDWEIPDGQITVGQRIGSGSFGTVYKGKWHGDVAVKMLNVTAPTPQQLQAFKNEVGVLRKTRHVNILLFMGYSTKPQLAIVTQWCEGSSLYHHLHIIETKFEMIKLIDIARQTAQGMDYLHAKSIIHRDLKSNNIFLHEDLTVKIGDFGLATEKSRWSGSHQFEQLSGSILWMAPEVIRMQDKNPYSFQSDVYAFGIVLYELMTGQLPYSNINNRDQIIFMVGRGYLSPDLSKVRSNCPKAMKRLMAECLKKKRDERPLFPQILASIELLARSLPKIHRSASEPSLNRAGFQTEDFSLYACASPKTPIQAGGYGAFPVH
Sequence of RAF proto-oncogene serine/threonine-protein kinase (P04049 whole entry): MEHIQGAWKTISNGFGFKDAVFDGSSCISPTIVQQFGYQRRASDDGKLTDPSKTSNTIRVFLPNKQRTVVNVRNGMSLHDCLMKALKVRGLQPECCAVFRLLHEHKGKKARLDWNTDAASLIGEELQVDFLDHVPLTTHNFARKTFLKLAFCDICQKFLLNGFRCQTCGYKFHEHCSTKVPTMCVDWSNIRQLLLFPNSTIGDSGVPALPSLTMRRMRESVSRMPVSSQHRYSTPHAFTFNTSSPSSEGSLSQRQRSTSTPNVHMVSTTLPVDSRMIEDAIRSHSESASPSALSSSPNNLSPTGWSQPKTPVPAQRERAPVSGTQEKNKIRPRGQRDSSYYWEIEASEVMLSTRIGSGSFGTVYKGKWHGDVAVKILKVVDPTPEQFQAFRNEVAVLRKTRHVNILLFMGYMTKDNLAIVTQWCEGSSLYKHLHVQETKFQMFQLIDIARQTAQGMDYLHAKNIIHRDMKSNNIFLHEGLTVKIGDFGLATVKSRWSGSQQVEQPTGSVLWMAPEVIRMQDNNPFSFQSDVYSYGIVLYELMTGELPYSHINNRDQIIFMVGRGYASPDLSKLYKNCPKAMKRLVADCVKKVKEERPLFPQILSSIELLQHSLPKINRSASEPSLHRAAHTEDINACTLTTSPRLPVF

O=S(=O)(NCCCNc1nccc(-c2c(-c3cccc(F)c3)nc3sccn23)n1)c1ccc(C(F)(F)F)cc1 showed a pIC50 [1] of 7.40, a pIC50 [2] of 7.59 and a pIC50 [3] of 7.20. It also gave a pIC50 (L132) of 3.49, a pIC50 (SK-MEL-28 [4]) of 4.93 and a pIC50 (A-375) of 5.39. It also gave a viability at 10 µM (MDA-MB-468) of 102%, a viability at 10 µM (T47D) of 56% and a viability at 10 µM (SN12C) of 89%. For the same molecule, the viability at 10 µM (ACHN) was 87.8%, the viability at 10 µM (786-0) was 80.1% and the viability at 10 µM (SK-OV-3) was 77.7%. The viability at 10 µM (OVCAR-4) was 93%, the viability at 10 µM (OVCAR-3) was 92.8% and the viability at 10 µM (UACC-62) was 80.4%. The viability at 10 µM (SK-MEL-28 [5]) was 116%, the viability at 10 µM (CCRF-CEM) was 89.4% and the viability at 10 µM (HL-60(TB)) was 127%. For the same molecule, the viability at 10 µM (K562) was 69.8%, the viability at 10 µM (MOLT-4) was 62% and the viability at 10 µM (NCI-H460) was 98.7%. For the same molecule, the viability at 10 µM (COLO 205) was 91%, the viability at 10 µM (HCT-29) was 80.1% and the viability at 10 µM (KM12) was 88.5%.
O=C(NCCNc1nccc(-c2c(-c3cccc(F)c3)nc3sccn23)n1)c1c(F)cccc1F was tested, and the pIC50 [1] was 6.99, the pIC50 [2] was 7.48 and the pIC50 [3] was 7.02. For the same molecule, the pIC50 (L132) was 3.70, the pIC50 (SK-MEL-28 [4]) was 4.94 and the pIC50 (A-375) was 5.57. It also gave a viability at 10 µM (MDA-MB-468) of 54.3%, a viability at 10 µM (T47D) of 26.7% and a viability at 10 µM (SN12C) of 45%. For the same molecule, the viability at 10 µM (ACHN) was 26%, the viability at 10 µM (786-0) was 44.2% and the viability at 10 µM (SK-OV-3) was 64.1%. It also gave a viability at 10 µM (OVCAR-4) of 60.9%, a viability at 10 µM (OVCAR-3) of 56.8% and a viability at 10 µM (UACC-62) of 10.3%. It also gave a viability at 10 µM (SK-MEL-28 [5]) of 51.1%, a viability at 10 µM (CCRF-CEM) of 42.8% and a viability at 10 µM (HL-60(TB)) of 86.4%. For the same molecule, the viability at 10 µM (K562) was 40.2%, the viability at 10 µM (MOLT-4) was 35.9% and the viability at 10 µM (NCI-H460) was 24.8%. The viability at 10 µM (COLO 205) was 19.2%, the viability at 10 µM (HCT-29) was 20.4% and the viability at 10 µM (KM12) was 47.7%.
